# Source: patent US8222008B2, “Methods and compositions for treating cancer” (The Administrators of The Tulane Educational Fund, priority 2003, dated 2012)
# Where “and” joins values, the source holds several entries; their conditions need not be identical. Equal values may be shown once.
# Tests used:
# normal fibroblasts = test: Phase micrographs, apoptotic morphology; type: cell-based, human; conditions: normal cells with CDME added, TNF-α exposure
# Text: Phase micrographs (not shown) were also obtained of normal fibroblasts after TNF-α exposure alone, in normal fibroblasts in CDME, and in nephropathic fibroblasts after TNF-α exposure alone. Typical apoptotic morphology was observed, i.e., typical blebs in the plasma membrane are seen after treatment with TNF-a in both normal and cystinotic cell lines and the modulating effects of MEA and CDME was seen.
# black mice = test: Toxicity study of CDME in mice; type: in vivo, mouse; conditions: intraperitoneal injection, 500 μL in PBS
# Description: (§1) CDME was evaluated in mice for cystine generation in response to varying doses as follows: A stock solution of CDME in PBS was prepared having a concentrations of 1.8 g CDME/500 μL PBS. The stock solution was diluted to generate solutions for administration. 500 μL of diluted solutions were injected intraperitoneally into black mice (body mass ˜0.03 kg). All injections were performed in duplicate.
# Mice given effective dosages of 5,000 mg CDME/kg body mass or higher died. […] The CDME-injected mice contained close to 100-fold increases in intralysosomal cystine.
# liver of black mice = test: Liver cystine concentration after CDME injection (CBP and BCA assays); type: in vivo, mouse
# Description: Intracellular lysosomal free cystine was determined using a cystine binding protein (CBP) assay (Oshima et al, 1974 J. Biol. Chem., 249:6033-6039). CBP was procured from Riverside Scientific. The assay has a sensitivity of 0.1 μM. Total cell protein was determined by a modification of the Lowry method (Lowry O. et al 1951 J. Biol. Chem., 193:265-275). Statistical analyses were performed using paired t test for means with SSPS for Windows. Results are mean+/−1.0 SD (FIG. 3).
# as §1
# Following administration of the solutions of Table 6, the endogenous cystine concentrations in two organs (kidney and liver) were examined for the 6 mice, i.e., the CDME-injected mice as well as black, heterozygous, and wild-type control mice. The analysis was performed using the cystine binding protein CBP assay of Example 1 and the Bicinchoninic Acid BCA assay (Pierce Biotechnology) for total protein concentration.
# [1] = test system: human renal proximal tubule epithelial cells; test: Effect of various compounds on apoptosis, CaspASE staining and FACS; type: cell-based
# Description: Normal and cystinotic fibroblasts were purchased from the Coriell Mutant Cell Repository, and cultured in Coon modification of Ham F12 medium, supplemented with 10% fetal calf serum (FCS). Renal proximal tubule epithelial (RPTE; Biowhittaker Corp.) were cultured in renal epithelial basal medium supplemented with one Singlequots™ kit (Biowhittaker) per 500 mL to make renal epithelial growth media (REGM, Biowhittaker). Fibroblasts and RPTE were maintained in a 5% carbon dioxide, 95% air, humidified incubator at 37° C. (Thoene J. G. et al, 1976 J. Clin. Invest, 58:180-189).
# Cultured human renal proximal tubule epithelial cells were incubated with various apoptotic compounds at a concentration of 0.5 mM for 16 hours. Following incubation, cells were stained with CaspASE. Fluorescence-activated cell sorting (Beckman Coulter Epics Elite) was used to determine the percentage of cells undergoing apoptosis from each treatment group.
# [2] = test system: renal proximal tubule epithelial (RPTE) cells; test: Time course of apoptosis, TUNEL (FIG. 3); type: cell-based, human
# Description: FIG. 3 is a graph showing the effect of CDME on apoptosis in renal proximal tubule epithelial (RPTE) cells. Semi-confluent RPTE cells were treated with either 0.25 mM CDME or TNF-a, harvested at 0.5, 1, 3, and 6 hours, stained with TUNEL, and enumerated by fluorescence microscopy. Each experiment was done in triplicate. The control (time 0) cystine content was 0.6 nmol/mg protein. After 1 hour incubation, the cystine content was 2.2 nmol/mg protein.
# 2. TUNEL Assay • The TUNEL assay employs terminal deoxynucleotidyl transferase (TdT) to label the ends of double stranded DNA breaks, which occur in apoptotic cells, with FITC-conjugated dUTP. Cells were fixed in 4% buffered formalin, washed, incubated in permeabilization solution (0.1% Triton X-100 in 0.1% Na Citrate) for 2 minutes on ice and then stained with 25 μL of TdT/45 μL of labeled dNTP mix for 40 minutes at 37° C. The cells were visually enumerated by fluorescence microscopy, scoring a minimum of five fields (250 to 300 cells) for fluorescence in triplicate followed by counting all cells in the same field by light microscopy, with a minimum of 750 cells scored per condition. The apoptosis rate is the total number of cells that fluoresce divided by the total cells in the field. […]
compound,measurement,setting,value
"COC(=O)[C@@H](N)CSSC[C@H](N)C(=O)OC [CDME, cystine dimethyl ester]",apoptotic morphology in phase micrographs,normal fibroblasts,Enhanced apoptosis
same,effective dosage at which mice died,black mice,"≥ 5,000 mg CDME/kg body mass"
same,Liver Cystine Concentration,"liver of black mice; 5,000 mg CDME/kg intraperitoneally, Mouse #1 and #2",230 nmol cystine/mg protein and 150 nmol cystine/mg protein
same,Liver Cystine Concentration,"liver of black mice; 10,000 mg CDME/kg intraperitoneally, Mouse #3",6.7 nmol cystine/mg protein
same,toxicity to RPTE cells,[1]; 0.5 mM (concentration employed in fibroblasts),toxic
same,percentage of cells undergoing apoptosis,"[1]; RPTE cells, method states 0.5 mM for 16 hours, CaspASE, FACS",39.7%
same,rate of apoptosis compared with TNF-a alone,[2]; 0.25 mM CDME alone,equal to that induced by exposure to TNF-a alone
same,time to maximum rate of apoptosis,"[2]; CDME, followed by lysis and release from the dish",≤ 6 h
